Patent publication US20190166840A1, “SUBSTITUTED PYRAZOLINYL DERIVATIVES, PROCESSES FOR THEIR PREPARATION AND THEIR USE AS HERBICIDES AND/OR PLANT GROWTH REGULATORS” (BAYER CROPSCIENCE AKTIENGESELLSCHAFT, priority 2016, published 2019)

These compounds were tested against T1, photosystem II (PS II) (Spinacia oleracea, UniProt P69560) (assay: Activity determination of photosystem II (PS II) in thylakoid membranes, DCPIP reduction). Details: spinach thylakoid membranes, DCPIP 120 μM, 10 min at 22° C. with illumination; read-out: pI50 (converted).
T1 construct: the chloroplasts were osmotically ruptured and the thylakoid membranes were then obtained by centrifugation; from tissue; host or cells: spinach leaves (thylakoid membrane preparation)
Format: biochemical
Method: Measurement of PS II Activity in Thylakoid Membranes
1. Preparation of the Thylakoid Membranes
Cooled fresh spinach leaves were comminuted and homogenized in 50 mM phosphate buffer, pH 6.8, 10 mM KCl, 0.34 M sucrose (sucrose buffer) (mixer, 1 g of plant material/ml). The homogenate was subsequently filtered through 4 layers of Miracloth and the chloroplasts were obtained by centrifugation: • 10 minutes (min) of centrifugation at 4400×g (4° C.). • The sediment was suspended in 25 ml of sucrose buffer and centrifuged for another 10 min at 4400×g (4° C.). • The sediment was then suspended in 40 ml of 50 mM phosphate buffer, pH 6.8, 10 mM KCl, without sucrose. • In this step, the chloroplasts were osmotically ruptured and the thylakoid membranes were then obtained by centrifugation (10 min, 4400×g, 4° C.). The membrane sediment was finally suspended in about 20 ml of 50 mM phosphate buffer, pH 6.8, 10 mM KCl. • After protein determination and activity determination, the membrane suspension was aliquoted and frozen in liquid nitrogen. The aliquots were stored at −80° C. Under these conditions, the photosystem II preparation is storage-stable for at least three months.
2. Activity Determination of the Photosystem II (PS II)
The electron transfer from PS II to an artificial electronic captor, 2,6-dichlorophenol-indophenol (DCPIP), is measured under the action of light. The concentration of the blue oxidized form of DCPIP can be determined spectraphotometrically at the wavelength l=595 nm. The enzyme-catalyzed reduction of DCPIP results in a colourless leuco form and thus to a decrease of absorption at 595 nm in the reaction batch, which is measured as a function of time.
The activity determination was carried out in microtiter plates (96 wells) in a reaction volume of 200 μl. 155 μl of dilute membrane suspension in 50 mM phosphate buffer, pH 6.8, 10 mM KCl were initially charged. Depending on the activity of the PS II preparation, the dilution was adjusted such that measurement of the decrease in absorption (λ=595 nm) was linear for at least 10 min.
Typical dilution series of the test compounds comprised 10 concentration steps in the range between 10^−9and 10^−5 M.
On each microtiter plate, a known PS II inhibitor, e.g. metribuzin, was used as standard for assessing the quality of the PS II test.
The reaction was initiated by addition of 40 μl DCPIP solution (600 μM in distilled water); the final concentration of DCPIP was 120 μM.
Absorption was measured over a period of 10 min at 22° C. and with illumination. For calculating the active compound concentration at which 50% of the enzyme activity is inhibited (IC50), the relative enzymatic activity (in %) was plotted as a function of the logarithm of the active compound concentration.
Compound `CC1=C(C)C(O)N(C2=NN(c3ccccc3)C(C(F)(F)F)C2)C1=O` (stereo not drawn) [I.2-1413] has an IC50 of 5.01 µM.

Each compound was assayed on Veronica persica (assay: Pre-emergence herbicidal action, VERPE). Details: application rate 1280 g/ha, scored visually after about 3 weeks.
Format: in vivo
Source text: Pre-Emergence Herbicidal Action Seeds of mono- and dicotyledonous weed plants or crop plants were placed in sandy loam in wood fibre pots and covered with soil. The formulated compounds of the general formula (I) according to the invention were then applied to the surface of the covering soil in the form of an aqueous suspension or emulsion at an application rate of 600 l of water/ha (converted) with addition of 0.2% wetting agent. After the treatment, the pots were placed in a greenhouse and kept under good growth conditions for the test plants. After about 3 weeks, the effect was scored visually in percent in comparison to untreated controls. For example, 100% activity=the plants have died, 50% herbicidal activity or damage=plants reduced to 50% or plant material reduced by 50%, 0% activity=like control plants. Here, in the biological tests, the compounds of the general formula (I) according to the invention were in each case employed in a formulation, with the numerations of Tables I.1 to I.77 also applying here. Here, the herbicidal action of the compounds of the general formula (I) according to the invention was examined for the following harmful plants: VERPE=Veronica persica The respective herbicidal action was in each case determined at the same point in time after application of the formulation in question, i.e. damage of the harmful plant in question in %. Pre-emergence herbicidal action of the compounds of the general formula (I) according to the invention: […]
For `CC1=C(C)C(O)N(C2=NN(c3ccccn3)C(C)(C)C2)C1=O` (stereo not drawn) [I.2-132], the “Pre-emergence herbicidal action VERPE, damage of the harmful plant” value (shortened to “Pre-emergence herbicidal action VERPE”) was 30%. `CCC(=O)OC1C(C)=C(C)C(=O)N1C1=NN(c2ccccn2)C(C)(C)C1` (stereo not drawn) [I.23-132] was tested, and the “Pre-emergence herbicidal action VERPE” value was 60%. With `CCC(=O)OC1C(C)=C(C)C(=O)N1C1=NN(c2ccccc2)CC1` (stereo not drawn) [I.23-621] the “Pre-emergence herbicidal action VERPE” value was 0%. For `CCC(=O)OC1C(C)=C(C)C(=O)N1C1=NN(c2ccccc2)C(C(F)(F)F)C1` (stereo not drawn) [I.23-1413], the “Pre-emergence herbicidal action VERPE” value was 60%. With `CCC(=O)OC1C(C)=C(Cl)C(=O)N1C1=NN(C)C(c2ccccc2)C1` (stereo not drawn) [I.24-1126] the “Pre-emergence herbicidal action VERPE” value was 0%.
